Laboratory results from patent publication US9708314B2, “Heterocyclic amide compound” (NISSAN CHEMICAL INDUSTRIES, LTD., priority 2013, dated 2017).

Experiments:
Assay type in all cases: in vivo
Veronica persica = test: Test Example 4: herbicidal effect by application to foliage (diluvial soil, plastic box); conditions: Application herbicide amount 320 g/ha; foliage application
Method in brief: (§1)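 Greenhouse plants (25° C. to 30° C., 14 d, diluvial soil) receive a foliar spray of water-diluted emulsifiable formulation at defined g/ha. Grading after 3 weeks uses a six-step herbicidal-ratio scale, with 4 covering 70% to <90% and 1 covering 5% to <20%.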

Amaranthus retroflexus = test: as above; conditions: Application herbicide amount 320 g/ha; foliage application
Method in brief: as §1

Avena fatua = test: as above; conditions: Application herbicide amount 320 g/ha; foliage application
Method in brief: as §1

Galium spurium = test: as above; conditions: Application herbicide amount 320 g/ha; foliage application
Method in brief: as §1

Apera spica-venti. = test: as above; conditions: Application herbicide amount 320 g/ha; foliage application
Method in brief: as §1

Lolium multiflorum Lam. = test: as above; conditions: Application herbicide amount 320 g/ha; foliage application
Method in brief: as §1

Digitaria ciliaris = test: as above; conditions: Application herbicide amount 320 g/ha; foliage application
Method in brief: as §1

Abutilon theophrasti = test: as above; conditions: Application herbicide amount 320 g/ha; foliage application
Method in brief: as §1

Chenopodium album = test: as above; conditions: Application herbicide amount 320 g/ha; foliage application
Method in brief: as §1

Setaria viridis = test: as above; conditions: Application herbicide amount 320 g/ha; foliage application
Method in brief: as §1

Stellaria media = test: as above; conditions: Application herbicide amount 320 g/ha; foliage application
Method in brief: as §1

Alopecurus myosuroides = test: as above; conditions: Application herbicide amount 320 g/ha; foliage application
Method in brief: as §1

[1] = system: Echinochloa crus-galli var. crus-galli; test: as above; conditions: Application herbicide amount 320 g/ha; foliage application
Method in brief: as §1

[2] = system: directly sowed Oryza sativa; test: Test Example 3: effect on crop by application to foliage (Wagner pot, water depth 0.1-0.5 cm); conditions: Nineteenth Table; application to foliage; application herbicide amount 320 g/ha
Method in brief: (§2)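 Foliar spray, 14-day-old plants, emulsion diluted to target g/ha; rated 3 wk post-application, 0–5 scale (0 ≤5%, 5 ≥90% herbicidal ratio). Greenhouse 25–30 °C, alluvial soil.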

Leptochloa chinensis = test: Test Example 3: herbicidal effect by application to foliage (Wagner pot, water depth 0.1-0.5 cm); conditions: Nineteenth Table; application to foliage; application herbicide amount 320 g/ha
Method in brief: as §2

Cyperus difformis = test: as above; conditions: Nineteenth Table; application to foliage; application herbicide amount 320 g/ha
Method in brief: as §2

[3] = system: Echinochloa crus-galli var. crus-galli; test: as above; conditions: Nineteenth Table; application to foliage; application herbicide amount 320 g/ha
Method in brief: as §2

[4] = system: directly sowed Oryza sativa; test: Test Example 4: effect on crop by application to foliage (diluvial soil, plastic box); conditions: Application herbicide amount 320 g/ha; foliage application
Method in brief: as §1

[5] = system: Beta vulgaris ssp. vulgaris; test: as above; conditions: Application herbicide amount 320 g/ha; foliage application
Method in brief: as §1

Brassica campestris L. = test: as above; conditions: Application herbicide amount 320 g/ha; foliage application
Method in brief: as §1

Zea mays = test: as above; conditions: Application herbicide amount 320 g/ha; foliage application
Method in brief: as §1

Triticum aestivum = test: as above; conditions: Application herbicide amount 320 g/ha; foliage application
Method in brief: as §1

Glycine max = test: as above; conditions: Application herbicide amount 320 g/ha; foliage application
Method in brief: as §1

| SMILES | R (Veronica persica) herbicidal effect grade (Veronica persica) | N (Amaranthus retroflexus) herbicidal effect grade (Amaranthus retroflexus) | I (Avena fatua) herbicidal effect grade (Avena fatua) | Q (Galium spurium) herbicidal effect grade (Galium spurium) | L (Apera spica-venti.) herbicidal effect grade (Apera spica-venti.) | K (Lolium multiflorum Lam.) herbicidal effect grade (Lolium multiflorum Lam.) | F (Digitaria ciliaris) herbicidal effect grade (Digitaria ciliaris) | M (Abutilon theophrasti) herbicidal effect grade (Abutilon theophrasti) | O (Chenopodium album) herbicidal effect grade (Chenopodium album) | G (Setaria viridis) herbicidal effect grade (Setaria viridis) | P (Stellaria media) herbicidal effect grade (Stellaria media) | J (Alopecurus myosuroides) herbicidal effect grade (Alopecurus myosuroides) | H (Echinochloa crus-galli var. crus-galli) herbicidal effect grade [1] | b (effect on crop grade) [2] | D (herbicidal effect grade) (Leptochloa chinensis) | E (herbicidal effect grade) (Cyperus difformis) | H (herbicidal effect grade) [3] | b (directly sowed Oryza sativa) effect on crop grade [4] | f (Beta vulgaris ssp. vulgaris) effect on crop grade [5] | g (Brassica campestris L.) effect on crop grade (Brassica campestris L.) | further results |
| --- | --- | --- | --- | --- | --- | --- | --- | --- | --- | --- | --- | --- | --- | --- | --- | --- | --- | --- | --- | --- | --- |
| O=C(Nc1nnco1)c1ccc(C(F)(F)F)n2c(N3CCOCC3)nnc12 [1-110] | 5 (Herbicidal ratio of 90% or more (almost completely withered)) | 5 (Herbicidal ratio of 90% or more (almost completely withered)) | 4 (Herbicidal ratio of 70% or more and less than 90%) | 4 (Herbicidal ratio of 70% or more and less than 90%) | 3 (Herbicidal ratio of 40% or more and less than 70%) | 3 (Herbicidal ratio of 40% or more and less than 70%) | 5 (Herbicidal ratio of 90% or more (almost completely withered)) | 4 (Herbicidal ratio of 70% or more and less than 90%) | 5 (Herbicidal ratio of 90% or more (almost completely withered)) | 5 (Herbicidal ratio of 90% or more (almost completely withered)) | 5 (Herbicidal ratio of 90% or more (almost completely withered)) | 3 (Herbicidal ratio of 40% or more and less than 70%) | 5 (Herbicidal ratio of 90% or more (almost completely withered)) | 5 (Herbicidal ratio of 90% or more (almost completely withered)) | 5 (Herbicidal ratio of 90% or more (almost completely withered)) | 5 (Herbicidal ratio of 90% or more (almost completely withered)) | 5 (Herbicidal ratio of 90% or more (almost completely withered)) | 4 (Herbicidal ratio of 70% or more and less than 90%) | 5 (Herbicidal ratio of 90% or more (almost completely withered)) | 5 (Herbicidal ratio of 90% or more (almost completely withered)) | c (Zea mays) effect on crop grade (Zea mays): 4 (Herbicidal ratio of 70% or more and less than 90%); e (Triticum aestivum) effect on crop grade (Triticum aestivum): 3 (Herbicidal ratio of 40% or more and less than 70%); d (Glycine max) effect on crop grade (Glycine max): 4 (Herbicidal ratio of 70% or more and less than 90%) |
| CCOc1nnc2c(C(=O)Nc3nnco3)ccc(C(F)(F)F)n12 [1-112] | 5 (Herbicidal ratio of 90% or more (almost completely withered)) | 4 (Herbicidal ratio of 70% or more and less than 90%) | 0 (Herbicidal ratio of 5% or less (almost no effect)) | 0 (Herbicidal ratio of 5% or less (almost no effect)) | 0 (Herbicidal ratio of 5% or less (almost no effect)) | 0 (Herbicidal ratio of 5% or less (almost no effect)) | 1 (Herbicidal ratio of 5% or more and less than 20%) | 3 (Herbicidal ratio of 40% or more and less than 70%) | 5 (Herbicidal ratio of 90% or more (almost completely withered)) | 0 (Herbicidal ratio of 5% or less (almost no effect)) | 4 (Herbicidal ratio of 70% or more and less than 90%) | 0 (Herbicidal ratio of 5% or less (almost no effect)) | 2 (Herbicidal ratio of 20% or more and less than 40%) | 0 (Herbicidal ratio of 5% or less (almost no effect)) | 2 (Herbicidal ratio of 20% or more and less than 40%) | 1 (Herbicidal ratio of 5% or more and less than 20%) | 3 (Herbicidal ratio of 40% or more and less than 70%) | 0 (Herbicidal ratio of 5% or less (almost no effect)) | 5 (Herbicidal ratio of 90% or more (almost completely withered)) | 3 (Herbicidal ratio of 40% or more and less than 70%) | c (Zea mays) effect on crop grade (Zea mays): 0 (Herbicidal ratio of 5% or less (almost no effect)); e (Triticum aestivum) effect on crop grade (Triticum aestivum): 0 (Herbicidal ratio of 5% or less (almost no effect)); d (Glycine max) effect on crop grade (Glycine max): 3 (Herbicidal ratio of 40% or more and less than 70%) |
| Cc1nnc(NC(=O)c2ccc(C(F)(F)F)n3c(SCc4ccccc4)nnc23)o1 [1-113] | 3 (Herbicidal ratio of 40% or more and less than 70%) | 3 (Herbicidal ratio of 40% or more and less than 70%) | 0 (Herbicidal ratio of 5% or less (almost no effect)) | 0 (Herbicidal ratio of 5% or less (almost no effect)) | 0 (Herbicidal ratio of 5% or less (almost no effect)) | 0 (Herbicidal ratio of 5% or less (almost no effect)) | 1 (Herbicidal ratio of 5% or more and less than 20%) | 1 (Herbicidal ratio of 5% or more and less than 20%) | 5 (Herbicidal ratio of 90% or more (almost completely withered)) | 0 (Herbicidal ratio of 5% or less (almost no effect)) | 4 (Herbicidal ratio of 70% or more and less than 90%) | 0 (Herbicidal ratio of 5% or less (almost no effect)) | 2 (Herbicidal ratio of 20% or more and less than 40%) | 0 (Herbicidal ratio of 5% or less (almost no effect)) | 3 (Herbicidal ratio of 40% or more and less than 70%) | 3 (Herbicidal ratio of 40% or more and less than 70%) | 4 (Herbicidal ratio of 70% or more and less than 90%) | 0 (Herbicidal ratio of 5% or less (almost no effect)) | 3 (Herbicidal ratio of 40% or more and less than 70%) | 0 (Herbicidal ratio of 5% or less (almost no effect)) | c (Zea mays) effect on crop grade (Zea mays): 0 (Herbicidal ratio of 5% or less (almost no effect)); e (Triticum aestivum) effect on crop grade (Triticum aestivum): 0 (Herbicidal ratio of 5% or less (almost no effect)); d (Glycine max) effect on crop grade (Glycine max): 0 (Herbicidal ratio of 5% or less (almost no effect)) |
| COc1ccc(CSc2nnc3c(C(=O)Nc4nnc(C)o4)ccc(C(F)(F)F)n23)cc1 [1-114] | 3 (Herbicidal ratio of 40% or more and less than 70%) | 3 (Herbicidal ratio of 40% or more and less than 70%) | 0 (Herbicidal ratio of 5% or less (almost no effect)) | 1 (Herbicidal ratio of 5% or more and less than 20%) | 0 (Herbicidal ratio of 5% or less (almost no effect)) | 0 (Herbicidal ratio of 5% or less (almost no effect)) | 1 (Herbicidal ratio of 5% or more and less than 20%) | 2 (Herbicidal ratio of 20% or more and less than 40%) | 5 (Herbicidal ratio of 90% or more (almost completely withered)) | 0 (Herbicidal ratio of 5% or less (almost no effect)) | 4 (Herbicidal ratio of 70% or more and less than 90%) | 0 (Herbicidal ratio of 5% or less (almost no effect)) | 3 (Herbicidal ratio of 40% or more and less than 70%) | 0 (Herbicidal ratio of 5% or less (almost no effect)) | 4 (Herbicidal ratio of 70% or more and less than 90%) | 2 (Herbicidal ratio of 20% or more and less than 40%) | 4 (Herbicidal ratio of 70% or more and less than 90%) | 0 (Herbicidal ratio of 5% or less (almost no effect)) | 4 (Herbicidal ratio of 70% or more and less than 90%) | 0 (Herbicidal ratio of 5% or less (almost no effect)) | c (Zea mays) effect on crop grade (Zea mays): 0 (Herbicidal ratio of 5% or less (almost no effect)); e (Triticum aestivum) effect on crop grade (Triticum aestivum): 0 (Herbicidal ratio of 5% or less (almost no effect)); d (Glycine max) effect on crop grade (Glycine max): 0 (Herbicidal ratio of 5% or less (almost no effect)) |
